Molecular target: T1, ENaC (Homo sapiens, UniProt P37088+P51168+P51170)
T1 construct: endogenous in cells; host or cells: primary human bronchial epithelial (HBE) cells at air-liquid interface
T1 sequence (P37088 1-669): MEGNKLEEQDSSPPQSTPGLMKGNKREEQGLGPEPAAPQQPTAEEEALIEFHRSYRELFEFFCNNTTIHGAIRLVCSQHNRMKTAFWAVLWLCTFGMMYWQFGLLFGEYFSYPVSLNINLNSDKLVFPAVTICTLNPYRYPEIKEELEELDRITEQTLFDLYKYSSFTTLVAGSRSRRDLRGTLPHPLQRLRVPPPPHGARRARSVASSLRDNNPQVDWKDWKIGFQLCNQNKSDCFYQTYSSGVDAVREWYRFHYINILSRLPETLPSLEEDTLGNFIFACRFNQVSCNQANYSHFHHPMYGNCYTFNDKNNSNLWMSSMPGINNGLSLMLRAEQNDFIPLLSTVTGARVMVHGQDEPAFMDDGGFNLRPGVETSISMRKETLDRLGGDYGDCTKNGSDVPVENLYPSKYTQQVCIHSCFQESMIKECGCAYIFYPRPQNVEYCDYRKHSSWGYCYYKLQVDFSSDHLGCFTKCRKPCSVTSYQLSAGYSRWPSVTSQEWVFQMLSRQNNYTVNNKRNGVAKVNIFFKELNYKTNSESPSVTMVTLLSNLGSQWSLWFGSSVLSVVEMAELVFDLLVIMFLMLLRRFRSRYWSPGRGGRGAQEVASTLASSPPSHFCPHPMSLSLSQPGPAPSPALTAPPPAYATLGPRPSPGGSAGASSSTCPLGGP
T1 sequence (P51168 1-640): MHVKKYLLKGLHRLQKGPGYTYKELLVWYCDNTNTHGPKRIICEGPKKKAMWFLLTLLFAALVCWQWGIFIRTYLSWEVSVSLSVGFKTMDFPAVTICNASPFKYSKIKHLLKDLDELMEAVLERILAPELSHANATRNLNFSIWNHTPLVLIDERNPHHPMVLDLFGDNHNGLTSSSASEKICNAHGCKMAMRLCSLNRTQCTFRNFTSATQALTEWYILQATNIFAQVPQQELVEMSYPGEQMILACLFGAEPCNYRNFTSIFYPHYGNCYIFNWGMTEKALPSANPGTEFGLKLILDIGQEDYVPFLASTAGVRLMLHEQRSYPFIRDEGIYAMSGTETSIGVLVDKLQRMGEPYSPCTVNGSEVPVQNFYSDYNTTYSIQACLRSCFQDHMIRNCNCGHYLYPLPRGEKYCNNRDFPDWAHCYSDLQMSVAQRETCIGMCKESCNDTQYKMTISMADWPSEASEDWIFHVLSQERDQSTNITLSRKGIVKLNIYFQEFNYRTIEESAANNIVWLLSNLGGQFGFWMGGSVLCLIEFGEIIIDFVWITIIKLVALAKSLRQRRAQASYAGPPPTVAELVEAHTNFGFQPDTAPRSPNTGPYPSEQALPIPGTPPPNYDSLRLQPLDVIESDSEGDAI
T1 sequence (P51170 1-649): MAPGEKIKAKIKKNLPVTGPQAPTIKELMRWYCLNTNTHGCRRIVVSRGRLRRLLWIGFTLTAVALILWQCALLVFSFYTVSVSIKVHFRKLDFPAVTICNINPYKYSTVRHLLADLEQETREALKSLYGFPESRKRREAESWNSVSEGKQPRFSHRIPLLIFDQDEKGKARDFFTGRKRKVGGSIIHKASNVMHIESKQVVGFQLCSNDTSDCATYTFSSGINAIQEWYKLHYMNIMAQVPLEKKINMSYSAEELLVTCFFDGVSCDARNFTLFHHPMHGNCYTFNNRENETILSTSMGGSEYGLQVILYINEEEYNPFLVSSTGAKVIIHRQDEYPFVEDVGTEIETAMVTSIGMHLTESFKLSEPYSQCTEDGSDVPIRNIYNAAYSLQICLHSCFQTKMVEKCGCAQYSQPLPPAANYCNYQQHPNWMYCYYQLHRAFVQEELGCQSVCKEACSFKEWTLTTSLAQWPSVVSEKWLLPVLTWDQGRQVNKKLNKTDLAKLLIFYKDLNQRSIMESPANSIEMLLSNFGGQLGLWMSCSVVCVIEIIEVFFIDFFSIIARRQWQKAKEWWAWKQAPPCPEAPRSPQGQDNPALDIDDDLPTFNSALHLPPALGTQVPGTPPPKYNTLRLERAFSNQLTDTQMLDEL
Assay: ENaC Na^+ conductance in HBE cells
Assay type: cell-based
Conditions: 10 μM, 5 min pretreatment; amiloride 10 μM
Procedure: FIG. 2A-E. Characterization of TMEM16A activators. FIG. 2A. Cytoplasmic calcium measured by Fluo-4 fluorescence. 100 μM ATP (gray line) or 10 μM of indicated TMEM16A activators were added at the arrow. FIG. 2B. Apical membrane current measured in TMEM16A-expressing FRT cells in the presence of a transepithelial chloride gradient and after basolateral membrane permeabilization. […] T16Ainh-A01 (10 μM) added where indicated. […] (right) Concentration-activation data summary (mean±S.E., n=4-6). FIG. 2C. Synergistic effect of Eact and Fact. (left and center) Representative current traces showing synergy. (right) Data summary of low doses of TMEM16A activation (mean±S.E., n=5, * P<0.05). FIG. 2D. Apical membrane current measured in FRT cells transfected with mouse TMEM16A or TMEM16B. FIG. 2E. Effect of Eact and Fact on CFTR and ENaC. (left) FRT cells expressing wild type CFTR and YFP indicator were pretreated for 5 min with 10 μM Eact and Fact. Forskolin (10 μM) added as indicated. […]
Snapwell inserts containing TMEM16A-expressing FRT, HBE, CF HBE or HTG cells were mounted in Ussing chambers (Physiologic Instruments, San Diego, Calif.). […] Apical membrane current (for FRT cells) and short-circuit current were measured using an EVC4000 Multi-Channel V/I Clamp (World Precision Instruments, Sarasota, Fla.) and recorded using PowerLab/8sp (AD Instruments, Castle Hill, Australia).

O=C(Nc1ccc(Br)cc1)c1cccc(-n2cnnn2)c1 [Fact, N-(4-bromophenyl)-3-(1H-tetrazol-1-yl)benzamide]
effect on ENaC Na^+ conductance: Neither Eact nor Fact affected
